Where two headings read alike, the source gives them in different places.
Key:
[1] = system: Hedgehog pathway activation (GLi-luciferase reporter) in Shh Light II reporter cells; assay: Hedgehog pathway activation on Shh Light II reporter cells measured by luciferase activity; type: cell-based
Procedure, shortened: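 Shh Light II reporter cells carrying a hedgehog-responsive GLi-luciferase reporter were stimulated either with 500 nM SAG, a direct Smoothened agonist, or with conditioned media containing human Sonic Hedgehog (hShh). Test compounds were evaluated for blocking this pathway activation, quantified by luciferase activity. Cell viability was monitored in parallel with the Celltiter-Blue® assay.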

[2] = system: Hedgehog pathway activation on 10T1/2/Smo#3 cells (C3H10T1/2 cells transfected with human Smoothened receptor); assay: Hedgehog pathway activation on 10T1/2/Smo#3 cells measured by ALP activity; type: cell-based
Procedure, shortened: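 Inhibition of alkaline phosphatase induction, read fluorometrically from 4-methylumbelliferyl phosphate conversion, gave IC50 values; CellTiter-Blue tracked viability in parallel. Cells were the human Smo-transfected 10T1/2/Smo#3 pool, stimulated by 10-20% hShh conditioned medium or the Smo agonist SAG (500 nM).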

[3] = Mus musculus, Shh Light II, SAG activation (500 nM SAG), read-out: Shh Light II luciferase activity (SAG activation)
[4] = Mus musculus, Shh Light II, hShh activation, read-out: Shh (IC50, inhibition of Hedgehog pathway activation)
[5] = Mus musculus, Shh Light II, hShh activation, read-out: Shh Light II luciferase activity (hShh activation)
[6] = Mus musculus, C3H 10T1/2, 10T1/2/Smo#3 cells, hShh activation, ALP activity, read-out: 10T1/2/Smo#3 ALP activity (hShh Activation)
[7] = Mus musculus, C3H 10T1/2, 10T1/2/Smo#3 cells, measured by ALP activity, read-out: ALP (IC50, inhibition of Hedgehog pathway activation)

| IC50 [1, 3] [µM] | IC50 [1, 4] [µM] | IC50 [1, 5] [µM] | IC50 [2, 6] [µM] | IC50 [2, 7] [µM] | IC50 ([1]; hShh activation, read-out: Shh (IC50, inhibition of Hedgehog pathway activation)) [µM] | IC50 ([2]; 10T1/2/Smo#3 cells, measured by ALP activity, read-out: ALP (IC50, inhibition of Hedgehog pathway activation)) [µM] | SMILES |
| --- | --- | --- | --- | --- | --- | --- | --- |
| < 0.3 | 0.006 | < 0.3 | < 0.3 | 0.086 |  |  | Cc1ccc(-c2cn3nc(-c4ccc(C(=O)O)cc4C(F)(F)F)ccc3n2)cc1NC(=O)C(C)(C)C [Example 479, 4-(2-(4-methyl-3-pivalamidophenyl)imidazo[1,2-b]pyridazin-6-yl)-3-(trifluoromethyl)benzoic acid] |
| 0.3 to 3 | 0.072 | < 0.3 | < 0.3 | 0.114 |  |  | Cc1ccc(-c2cn3nc(-c4cccnc4C(F)(F)F)ccc3n2)cc1C(=O)NC(C)(C)C [Example 483, N-tert-butyl-2-methyl-5-(6-(2-(trifluoromethyl)pyridin-3-yl)imidazo[1,2-b]pyridazin-2-yl)benzamide] |
| < 0.3 |  | < 0.3 | < 0.3 |  |  |  | CCc1ccc(-c2cn3nc(-c4cccnc4C(F)(F)F)ccc3n2)cc1NC(=O)C1(C)CC1 [Example 633] |
|  | 0.12 |  |  | 0.098 |  |  | CN[C@@H]1CCN(c2ccc3nc(-c4ccc(C(F)(F)F)c(NC(=O)C(C)(C)C)c4)cn3n2)C1 [Example 634, (R)—N-(5-(6-(3-(methylamino)pyrrolidin-1-yl)imidazo[1,2-b]pyridazin-2-yl)-2-(trifluoromethyl)phenyl)pivalamide] |
|  | 0.11 |  |  | 0.159 |  |  | CCN[C@@H]1CCN(c2ccc3nc(-c4ccc(C(F)(F)F)c(NC(=O)C(C)(C)C)c4)cn3n2)C1 [Example 635, (R)—N-(5-(6-(3-(ethylamino)pyrrolidin-1-yl)imidazo[1,2-b]pyridazin-2-yl)-2-(trifluoromethyl)phenyl)pivalamide] |
|  |  |  |  |  | 0.131 | 0.035 | CCc1ccc(-c2cn3nc(-c4cccnc4C(F)(F)F)ccc3n2)cc1NC(=O)C1(C)CC1 [Example 636, N-(2-ethyl-5-(6-(2-(trifluoromethy)pyridin-3-y)imidazo[1,2-b]pyridazin-2-yl)phenyl)-1-methylcyclopropanecarboxamide] |
|  | 2.18 |  |  | 0.418 |  |  | Cc1ccc(-c2cn3nc(N4CCC(N(C)C(=O)C(N)C(C)C)C4)ccc3n2)cc1NC(=O)C(C)(C)C (centres unmarked) [Example 637, 2-amino-N,3-dimethyl-N-(1-(2-(4-methyl-3-pivalamidophenyl)imidazo[1,2-b]pyridazin-6-yl)pyrrolidin-3-yl)butanamide] |
|  | 0.02 |  |  | 0.02 |  |  | Cc1ccc(-c2cn3nc(-c4cccnc4C(F)(F)F)ccc3n2)cc1NC(=O)C(C)(C)C(F)(F)F [Example 638, 3,3,3-trifluoro-2,2-dimethyl-N-(2-methyl-5-(6-(2-(trifluoromethyl)pyridin-3-yl)imidazo[1,2-b]pyridazin-2-yl)phenyl)propanamide] |
| < 0.3 | 0.03 | < 0.3 | < 0.3 | 0.055 |  |  | Cc1cc(Cl)c(-c2cn3nc(-c4cccnc4C(F)(F)F)ccc3n2)cc1NC(=O)C(C)(C)C [Example 639, N-(4-chloro-2-methyl-5-(6-(2-(trifluoromethyl)pyridin-3-yl)imidazo[1,2-b]pyridazin-2-yl)phenyl)pivalamide] |
|  | 0.107 |  |  | 0.138 |  |  | Cc1cc(Cl)c(-c2cn3nc(N4CC[C@@H](O)C4)ccc3n2)cc1NC(=O)C(C)(C)C [Example 640, (R)—N-(4-chloro-5-(6-(3-hydroxypyrrolidin-1-yl)imidazo[1,2-b]pyridazin-2-yl)-2-methylphenyl)pivalamide] |
|  | 0.076 |  |  | 0.034 |  |  | Cc1ccc(-c2nc3ccc(-c4cccnc4C(F)(F)F)nn3c2Cl)cc1NC(=O)C(C)(C)C [Example 641, N-(5-(3-chloro-6-(2-(trifluoromethyl)pyridin-3-yl)imidazo[1,2-b]pyridazin-2-yl)-2-methylphenyl)pivalamide] |
| < 0.3 | 0.013 | < 0.3 | < 0.3 | 0.006 |  |  | CC(C)(C)C(=O)Nc1cc(-c2cn3nc(-c4cccnc4C(F)(F)F)ccc3n2)ccc1Cl [Example 642, N-(2-chloro-5-(6-(2-(trifluoromethyl)pyridin-3-yl)imidazo[1,2-b]pyridazin-2-yl)phenyl)pivalamide] |
|  | 0.146 |  |  | 0.023 |  |  | CC(C)(C)C(=O)Nc1cc(-c2cn3nc(N4CC[C@@H](O)C4)ccc3n2)ccc1Cl [Example 643, (R)—N-(2-chloro-5-(6-(3-hydroxypyrrolidin-1-yl)imidazo[1,2-b]pyridazin-2-yl)phenyl)pivalamide] |
|  | 0.072 |  |  | 0.015 |  |  | CC(C)(C)C(=O)Nc1cc(-c2cn3nc(-c4cccnc4C(F)(F)F)ccc3n2)ccc1C1CC1 [Example 644, N-(2-cyclopropyl-5-(6-(2-(trifluoromethyl)pyridin-3-yl)imidazo[1,2-b]pyridazin-2-yl)phenyl)pivalamide] |
|  | 0.589 |  |  | 0.155 |  |  | Cc1ccc(-c2cn3nc(-c4cccnc4C(F)(F)F)ccc3n2)cc1NC(=O)C1CCCN1 (centres unmarked) [Example 645, N-(2-methyl-5-(6-(2-(trifluoromethyl)pyridin-3-yl)imidazo[1,2-b]pyridazin-2-yl)phenyl)pyrrolidine-2-carboxamide] |
| 0.3 to 3 | 0.038 | < 0.3 | < 0.3 | 0.016 |  |  | Cc1ccc(-c2cn3nc(-c4cccnc4C(F)(F)F)ccc3n2)cc1NC(=O)NC(C)(C)C [Example 646, 1-tert-butyl-3-(2-methyl-5-(6-(2-(trifluoromethyl)pyridin-3-yl)imidazo[1,2-b]pyridazin-2-yl)phenyl)urea] |
|  | 0.186 |  |  | 0.094 |  |  | Cc1ccc(-c2cn3nc(-c4cccnc4C(F)(F)F)ccc3n2)cc1NC(=O)C1CCCN1C (centres unmarked) [Example 647, 1-methyl-N-(2-methyl-5-(6-(2-(trifluoromethyl)pyridin-3-yl)imidazo[1,2-b]pyridazin-2-yl)phenyl)pyrrolidine-2-carboxamide] |
|  | 0.4 |  |  | 0.373 |  |  | CCN1CCCC1C(=O)Nc1cc(-c2cn3nc(-c4cccnc4C(F)(F)F)ccc3n2)ccc1C (centres unmarked) [Example 648, 1-ethyl-N-(2-methyl-5-(6-(2-(trifluoromethyl)pyridin-3-yl)imidazo[1,2-b]pyridazin-2-yl)phenyl)pyrrolidine-2-carboxamide] |
|  | 0.08 |  |  | 0.05 |  |  | Cc1cc(F)c(-c2cn3nc(-c4cccnc4C(F)(F)F)ccc3n2)cc1NC(=O)C(C)(C)C [Example 649, N-(4-fluoro-2-methyl-5-(6-(2-(trifluoromethyl)pyridin-3-yl)imidazo[1,2-b]pyridazin-2-yl)phenyl)pivalamide] |
| < 0.3 | 0.1 | < 0.3 | < 0.3 | 0.025 |  |  | CC(C)(C)C(=O)Nc1cc(-c2cn3nc(-c4cccnc4C(F)(F)F)ccc3n2)c(F)cc1Cl [Example 650, N-(2-chloro-4-fluoro-5-(6-(2-(trifluoromethyl)pyridin-3-yl)imidazo[1,2-b]pyridazin-2-yl)phenyl)pivalamide] |
|  | 0.139 |  |  | 0.127 |  |  | Cc1ccc(-c2cn3nc(-c4cccnc4C(F)(F)F)ccc3n2)cc1NC(=O)NC1CC1 [Example 651, 1-cyclopropyl-3-(2-methyl-5-(6-(2-(trifluoromethyl)pyridin-3-yl)imidazo[1,2-b]pyridazin-2-yl)phenyl)urea] |
|  | 0.034 |  |  | 0.036 |  |  | CC(C)(C)C(=O)Nc1cc(-c2cn3nc(-c4cccnc4C(F)(F)F)ccc3n2)c(F)cc1F [Example 652, N-(2,4-difluoro-5-(6-(2-(trifluoromethyl)pyridin-3-yl)imidazo[1,2-b]pyridazin-2-yl)phenyl)pivalamide] |
|  | 0.01 |  |  | 0.08 |  |  | CC1(C(=O)Nc2cc(-c3cn4nc(-c5cccnc5C(F)(F)F)ccc4n3)ccc2Cl)CC1 [Example 653, N-(2-chloro-5-(6-(2-(trifluoromethyl)pyridin-3-yl)imidazo[1,2-b]pyridazin-2-yl)phenyl)-1-methylcyclopropanecarboxamide] |
|  | 0.228 |  |  | 0.764 |  |  | O=C(Nc1cc(-c2cn3nc(-c4cccnc4C(F)(F)F)ccc3n2)ccc1Cl)NC1CC1 [Example 654, 1-(2-chloro-5-(6-(2-(trifluoromethyl)pyridin-3-yl)imidazo[1,2-b]pyridazin-2-yl)phenyl)-3-cyclopropylurea] |
| < 0.3 | 0.023 | < 0.3 | < 0.3 | 0.07 |  |  | CCN(CC)C(=O)Nc1cc(-c2cn3nc(-c4cccnc4C(F)(F)F)ccc3n2)ccc1Cl [Example 655, 3-(2-chloro-5-(6-(2-(trifluoromethyl)pyridin-3-yl)imidazo[1,2-b]pyridazin-2-yl)phenyl)-1,1-diethylurea] |
|  | 0.038 |  |  | 0.117 |  |  | O=C(Nc1cc(-c2cn3nc(-c4cccnc4C(F)(F)F)ccc3n2)ccc1Cl)N1CCCC1 [Example 656, N-(2-chloro-5-(6-(2-(trifluoromethyl)pyridin-3-yl)imidazo[1,2-b]pyridazin-2-yl)phenyl)pyrrolidine-1-carboxamide] |

— patent publication US8871767B2, “2-arylimidazo[1,2-B]pyridazine, 2-phenylimidazo[1,2-A]pyridine, and 2-phenylimidazo[1,2-A]pyrazine derivatives” (Hengrui (USA) Ltd., priority 2010, dated 2014)
